In patent US5508417A, “Broad-spectrum isothiazole antimicrobial agents” (Rohm and Haas Company, priority 1994, dated 1996):
Values after ≈ are worked out from the molar mass of the structure shown. Read-outs that look alike come from different tables or passages of the source.

What was measured:
Pseudomonas aeruginosa = experiment: Minimum inhibitory concentration by two-fold serial dilution in Trypticase Soy Broth, Pseudomonas aeruginosa; format: cell-based
Experimental: (§1) A stock solution of the test compound was made in dimethyl sulfoxide at 13,000 ppm and then diluted 26-fold to give a starting concentration of 500 ppm. The antimicrobial activity was evaluated by a two-fold serial dilution of the starting concentration of 500 ppm, using Trypticase Soy Broth medium at pH 7.0. The minimum inhibitory concentration (MIC) of compounds 1-15 against the test organisms are shown in Table 2. |Pseudomonas aeruginosa | Psae The antimicrobial activity of these compounds was determined as described in Example 6 with only one change. The organism Saur was replaced by Rhodotorula rubra (Rrub). Rrub is a pink yeast.

Rhodotorula rubra = experiment: Minimum inhibitory concentration by two-fold serial dilution in Trypticase Soy Broth, Rhodotorula rubra; format: cell-based; settings: Table 3, comparative, as described in Example 6, read-out: Comparative Antimicrobial Activity (MIC), Rrub
Experimental: as §1, with “The” for “The minimum inhibitory concentration (MIC) of compounds 1-15 against the test organisms are shown in Table 2. |Pseudomonas aeruginosa | Psae The”

Escherichia coli = experiment: Minimum inhibitory concentration by two-fold serial dilution in Trypticase Soy Broth, Escherichia coli; format: cell-based
Experimental: as §1, with “|Escherichia coli Ecol” for “|Pseudomonas aeruginosa | Psae”

Aspergillus niger = experiment: Minimum inhibitory concentration by two-fold serial dilution in Trypticase Soy Broth, Aspergillus niger; format: cell-based
Experimental: as §1, with “|Aspergillus niger Anig” for “|Pseudomonas aeruginosa | Psae”

Staphlococcus aureus = experiment: Minimum inhibitory concentration by two-fold serial dilution in Trypticase Soy Broth, Staphlococcus aureus; format: cell-based; settings: Table 2, pH 7.0, read-out: Antimicrobial Activity (MIC), Saur
Experimental: A stock solution of the test compound was made in dimethyl sulfoxide at 13,000 ppm and then diluted 26-fold to give a starting concentration of 500 ppm. The antimicrobial activity was evaluated by a two-fold serial dilution of the starting concentration of 500 ppm, using Trypticase Soy Broth medium at pH 7.0. The minimum inhibitory concentration (MIC) of compounds 1-15 against the test organisms are shown in Table 2. |Staphlococcus aureus | Saur

[1] = in words; U.S. Pat. No. 3,957,808; cited from earlier work
[2] = Table 3, comparative, as described in Example 6, read-out: Comparative Antimicrobial Activity (MIC), Psae
[3] = Table 3, comparative, as described in Example 6, read-out: Comparative Antimicrobial Activity (MIC), Ecol
[4] = Table 3, comparative, as described in Example 6, read-out: Comparative Antimicrobial Activity (MIC), Anig
[5] = Table 2, Trypticase Soy Broth, pH 7.0, read-out: Antimicrobial Activity (MIC), Psae
[6] = Table 2, Trypticase Soy Broth, pH 7.0, read-out: Antimicrobial Activity (MIC), Ecol
[7] = Table 2, Trypticase Soy Broth, pH 7.0, read-out: Antimicrobial Activity (MIC), Anig

| Structure (SMILES) | MIC (Pseudomonas aeruginosa; [2]) | MIC (Rhodotorula rubra) | MIC (Escherichia coli; [3]) | MIC (Aspergillus niger; [4]) | MIC (Pseudomonas aeruginosa; [5]) | MIC (Escherichia coli; [6]) | MIC (Aspergillus niger; [7]) | MIC (Staphlococcus aureus) | microbicidal properties [1] |
| --- | --- | --- | --- | --- | --- | --- | --- | --- | --- |
| C=CCOc1cc(Cl)sn1 [B, reference compound] | 500 µg/mL (≈ 2850 µM) | 500 µg/mL (≈ 2850 µM) | 250 µg/mL (≈ 1420 µM) | 250 µg/mL (≈ 1420 µM) | – | – | – | – | – |
| CC=C(COc1cc(Cl)sn1)C(=O)OCC [Compound 3, Ethyl 3-methyl-2-(5-chloroisothiazoloxy-3-yl-methyl)acrylate] | – | – | – | – | 125 µg/mL (≈ 478 µM) | 8 µg/mL (≈ 30.6 µM) | 4 µg/mL (≈ 15.3 µM) | 8 µg/mL (≈ 30.6 µM) | – |
| N#CC(=Cc1ccccc1)COc1cc(Cl)sn1 [Compound 4, 2-(5-Chloroisothiazoloxy-3-yl-methyl)-3-phenylacrylonitrile] | – | – | – | – | > 500 µg/mL | > 500 µg/mL | 500 µg/mL (≈ 1810 µM) | 500 µg/mL (≈ 1810 µM) | – |
| C=C(COc1cc(Cl)sn1)[S+]([O-])c1ccccc1 (stereo not shown) [Compound 6, 3-(5-Chloroisothiazoloxy-3-yl-methyl)-2-phenylsulfinyl-1-propene] | – | – | – | – | 125 µg/mL (≈ 417 µM) | 125 µg/mL (≈ 417 µM) | 32 µg/mL (≈ 107 µM) | 125 µg/mL (≈ 417 µM) | – |
| CC=C(COc1cc(Cl)sn1)S(=O)(=O)c1ccccc1 [Compound 8, 1-(5-Chloroisothiazoloxy-3-yl-methyl)-2-phenylsulfonyl-2-butene] | – | – | – | – | 64 µg/mL (≈ 194 µM) | 32 µg/mL (≈ 97 µM) | 64 µg/mL (≈ 194 µM) | 32 µg/mL (≈ 97 µM) | – |
| C=C(COc1cc(Cl)sn1)C(=O)NCc1ccccc1 [Compound 9, N-Benzyl 2-(5-chloroisothiazoloxy-3-yl-methyl)acrylamide] | – | – | – | – | > 500 µg/mL | > 500 µg/mL | 32 µg/mL (≈ 104 µM) | > 500 µg/mL | – |
| C=C(COc1cc(Cl)sn1)C(=O)O [Compound 10, 2-(5-Chloroisothiazoloxy-3-yl-methyl)acrylic acid] | – | – | – | – | > 500 µg/mL | 125 µg/mL (≈ 569 µM) | > 500 µg/mL | 64 µg/mL (≈ 291 µM) | – |
| CC(=O)C(=Cc1ccccc1)COc1nsc2c1CCC2 [Compound 11, α-(4,5-Trimethyleneisothiazoloxy-3-yl-methyl)benzalacetone] | – | – | – | – | > 500 µg/mL | > 500 µg/mL | 500 µg/mL (≈ 1670 µM) | > 500 µg/mL | – |
| C=C(COc1cc(Cl)sn1)C(=O)NC(C)C [Compound 12, N-Isopropyl 2-(5-chloroisothiazoloxy-3-yl-methyl)acrylamide] | – | – | – | – | 500 µg/mL (≈ 1920 µM) | 500 µg/mL (≈ 1920 µM) | 64 µg/mL (≈ 245 µM) | > 500 µg/mL | – |
| O=C1C=CC(=O)C(COc2cc(Cl)sn2)=C1 [Compound 14, 2-(5-Chloroisothiazoloxy-3-yl-methyl)-1,4-benzoquinone] | – | – | – | – | 64 µg/mL (≈ 250 µM) | 16 µg/mL (≈ 62.6 µM) | 8 µg/mL (≈ 31.3 µM) | 64 µg/mL (≈ 250 µM) | – |
| O=C1C=CC(=O)C(COc2ccsn2)=C1 [Compound 15, 2-(Isothiazoloxy-3-yl-methyl)-1,4-benzoquinone] | – | – | – | – | 32 µg/mL (≈ 145 µM) | 64 µg/mL (≈ 289 µM) | 16 µg/mL (≈ 72.3 µM) | 32 µg/mL (≈ 145 µM) | – |
| C=CCOc1ccsn1 [Compound A, reference compound] | > 500 µg/mL | > 500 µg/mL | > 500 µg/mL | 500 µg/mL (≈ 3540 µM) | – | – | – | – | useful microbicidal properties |

The remaining compounds from weak to strong by MIC (Pseudomonas aeruginosa; [5]), led by results:

| MIC (Pseudomonas aeruginosa; [2]) | MIC (Rhodotorula rubra) | MIC (Escherichia coli; [3]) | MIC (Aspergillus niger; [4]) | MIC (Pseudomonas aeruginosa; [5]) | MIC (Escherichia coli; [6]) | MIC (Aspergillus niger; [7]) | MIC (Staphlococcus aureus) | Structure (SMILES) | microbicidal properties [1] |
| --- | --- | --- | --- | --- | --- | --- | --- | --- | --- |
| 32 µg/mL (≈ 161 µM) | 32 µg/mL (≈ 161 µM) | 32 µg/mL (≈ 161 µM) | 32 µg/mL (≈ 161 µM) | 32 µg/mL (≈ 161 µM) | 32 µg/mL (≈ 161 µM) | 32 µg/mL (≈ 161 µM) | – | C=C(COc1ccsn1)C(=O)OC [Compound 1, Methyl 2-(isothiazoloxy-3-yl-methyl)acrylate] | – |
| 32 µg/mL (≈ 137 µM) | 8 µg/mL (≈ 34.2 µM) | < 4 µg/mL | 4 µg/mL (≈ 17.1 µM) | 32 µg/mL (≈ 137 µM) | 2 µg/mL (≈ 8.56 µM) | 1 µg/mL (≈ 4.28 µM) | 4 µg/mL (≈ 17.1 µM) | C=C(COc1cc(Cl)sn1)C(=O)OC [Compound 2, Methyl 2-(5-chloroisothiazoloxy-3-yl-methyl)acrylate] | – |
| – | – | – | – | 32 µg/mL (≈ 97 µM) | 32 µg/mL (≈ 97 µM) | 32 µg/mL (≈ 97 µM) | 32 µg/mL (≈ 97 µM) | C=C(C(C)Oc1cc(Cl)sn1)S(=O)(=O)c1ccccc1 (stereo not shown) [Compound 7, 3-(5-Chloroisothiazoloxy-3-yl)-2-phenylsulfonyl-1-butene] | – |
| – | – | – | – | 32 µg/mL (≈ 109 µM) | 8 µg/mL (≈ 27.2 µM) | 16 µg/mL (≈ 54.5 µM) | 8 µg/mL (≈ 27.2 µM) | O=c1c(COc2cc(Cl)sn2)coc2ccccc12 [Compound 13, 3-(5-Chloroisothiazoloxy-3-yl-methyl)chromone] | – |
| – | – | – | – | 16 µg/mL (≈ 54.5 µM) | 4 µg/mL (≈ 13.6 µM) | 1 µg/mL (≈ 3.4 µM) | 2 µg/mL (≈ 6.81 µM) | CC(=O)C(=Cc1ccccc1)COc1cc(Cl)sn1 [Compound 5, α-(5-Chloroisothiazoloxy-3-yl-methyl)benzalacetone] | – |
